# Measurements: article PMC11018795, “The regulatory relationship between NAMPT and PD-L1 in cancer and identification of a dual-targeting inhibitor” (EMBO Molecular Medicine, 2024)
# Values joined by “and” are separate entries in the source; they are usually repeats but may differ in a detail not shown here. Identical values can stand only once. Like-named read-outs stand apart in the source and are kept apart here.
# What was measured:
# [1] = tested on: LLC OE NAMPT/PD-L1 tumors; test: LLC OE NAMPT/PD-L1 tumor-bearing C57BL/6 mice; assay type: in vivo, mouse; settings: 20 mg/kg i.p.; 14 days; Fig 7B
# [2] = tested on: IFN-γ and TNF-α secretion, LLC cells co-cultured with T cells; test: ELISA of IFN-γ and TNF-α, LLC cells under co-culture condition; assay type: cell-based, mouse; set-up: unit not given here; settings: in vitro
# [3] = tested on: IFN-γ and TNF-α in LLC OE NAMPT/PD-L1 tumor tissues; test: ELISA of IFN-γ and TNF-α in tumor tissues of LLC OE NAMPT/PD-L1 mouse model; set-up: unit not given here; settings: in vivo, tumor tissue, CQ-85 20 mg/kg
# [4] = tested on: glycolytic genes in LLC cells; test: RT-PCR of glycolytic genes in LLC cells with or without T cells; assay type: cell-based, mouse; set-up: key to HK2 mRNA level / Glut1 mRNA level / Aldoa mRNA level / Eno1 mRNA level: relative mRNA level normalized to GAPDH (endogenous control)
# Description: (§1) Total RNA was isolated using TRIzol reagent (Invitrogen, 15596026) according to the manufacturer's protocol. First-strand cDNA synthesis was performed using a RevertAid First Strand cDNA Synthesis Kit (Thermo Fisher, […]). Quantitative real-time PCR analysis was performed by mixing 10 μl SYBR, 0.4 μM forward primer, 0.4 μM reverse primer, 1 μl cDNA, and 8.2 μl distilled water per sample with Top Green qPCR SuperMix (Transgene, AQ601-04) by the manufacturer's protocols. GAPDH was used as an endogenous control. All qRT-PCRs were set up in triplicate using three biological replicates for each sample. Primer information is shown in Appendix Table S1.
# [5] = tested on: pyruvate content of LLC cells; test: Pyruvate (PA) content in LLC cells with or without T cells; assay type: cell-based, mouse; set-up: unit not given beside the values
# Description: Supplement 44321_2024_51_MOESM3_ESM.zip/Fig-2-G.xlsx, sheet "Sheet1" | column: "-T cells; "+T cells
# [6] = tested on: NAD+ content of LLC cells; test: NAD+ content in LLC cells with or without T cells; assay type: cell-based, mouse; set-up: unit not given here
# Description: (§2) NAD^+ assays were performed to quantify the total NAD^+ content. NAD^+ assay was performed using the NAD/NADH Assay Kit (ab65348; Abcam) according to the manufacturer’s recommended protocol.
# [7] = tested on: glycolytic genes in A549 cells; test: RT-PCR of glycolytic genes, A549 cells co-cultured with PBMC; assay type: cell-based, human; set-up: key to Aldoa mRNA level / Eno1 mRNA level / HK2 mRNA level / Glut1 mRNA level: relative mRNA level normalized to GAPDH (endogenous control)
# Description: as §1
# [8] = tested on: glycolytic genes in A549 KO HIF-1α cells; test: RT-PCR of glycolytic genes, A549 KO HIF-1α cells co-cultured with PBMC; assay type: cell-based, human; settings: A549 KO HIF-1α co-cultured with PBMC
# Description: as §1
# [9] = tested on: NAD+ content of A549 cells; test: NAD+ content, A549 cells with or without PBMC; assay type: cell-based, human; set-up: unit not given here
# Description: as §2
# [10] = tested on: NAD+ content of A549 KO HIF-1α cells; test: NAD+ content, A549 KO HIF-1α cells with or without PBMC; assay type: cell-based, human; set-up: unit not given here
# Description: as §2
# [11] = tested on: pyruvate content of A549 cells; test: Pyruvate (PA) content, A549 cells with or without PBMC; assay type: cell-based, human; set-up: unit not given beside the values
# Description: Supplement 44321_2024_51_MOESM3_ESM.zip/Fig-2-K-PA.xlsx, sheet "Sheet1" | column: A549
# [12] = tested on: pyruvate content of A549 KO HIF-1α cells; test: Pyruvate (PA) content, A549 KO HIF-1α cells with or without PBMC; assay type: cell-based, human; set-up: unit not given beside the values
# Description: Supplement 44321_2024_51_MOESM3_ESM.zip/Fig-2-K-PA.xlsx, sheet "Sheet1" | column: A549 KO HIF-1α
# [13] = tested on: NAMPT expression in LLC OE NAMPT/PD-L1 tumors; test: NAMPT protein expression in LLC constructed xenograft model; assay type: in vivo, mouse; settings: CQ-85 20 mg/kg vs control group
# [14] = tested on: NAD+ content of A2780 cells; test: NAD+ assay in A2780 cells; assay type: cell-based, human
# Description: as §2
smiles,measurement,setting,value
O=C(c1ncc(CNC2CCOCC2)s1)N1CCc2c(-c3ccc4c(c3)OCCO4)cccc21 [CQ-85],TIR / tumor growth inhibition (TGI) rate at endpoint,[1],45.36%
same,IFN-γ (ELISA),[2],156.023 and 118.367 and 126.961
same,TNF-α (ELISA),[2],198.796 and 198.903 and 183.742
same,IFN-γ (ELISA),[3],32.0391 and 39.4609 and 37.7422 and 48.3828
same,TNF-α (ELISA),[3],49.9785 and 53.7419 and 61.1613 and 63.957
same,Aldoa mRNA level,[4]; +T Cells,3.122 and 3.144 and 2.933
same,Eno1 mRNA level,[4]; +T Cells,1.63 and 2.181 and 1.51
same,HK2 mRNA level,[4]; +T Cells,1.976 and 1.225 and 1.397
same,Pfk1 mRNA level,[4]; +T Cells,4.524 and 5.686 and 6.18
same,Aldoa mRNA level,[4]; -T Cells,0.1409 and 0.1113 and 0.07549
same,Eno1 mRNA level,[4]; -T Cells,1.412 and 1.0924 and 0.8165
same,Glut1 mRNA level,[4]; -T Cells,0.4601 and 0.3164 and 0.3635
same,HK2 mRNA level,[4]; -T Cells,1.925 and 1.641 and 1.032
same,content of pyruvate (PA),[5]; +T Cells,0.4897 and 0.4757 and 0.4584
same,content of pyruvate (PA),[5]; -T Cells,0.334 and 0.378 and 0.3588
same,content of NAD+,[6]; taken as +T cells by analogy with Fig 2G,6.631 and 6.489 and 6.614
same,content of NAD+,[6]; taken as -T cells by analogy with Fig 2G,10.4157 and 11.1416 and 12.0617
same,Aldoa mRNA level,[7],0.8847 and 0.8971 and 0.9885
same,Eno1 mRNA level,[7],1.112 and 1.398 and 1.35
same,Glut1 mRNA level,[7],2.253 and 2.993 and 2.146
same,HK2 mRNA level,[7],5.011 and 5.445 and 5.877
same,Pfk1 mRNA level,[7],1.666 and 1.544 and 1.005
same,Aldoa mRNA level,[8],0.8971 and 0.8909 and 1.1434
same,Eno1 mRNA level,[8],0.7363 and 0.9515 and 0.8284
same,Pfk1 mRNA level,[8],0.9428 and 1.091 and 0.7397
same,content of NAD+,[9]; +PBMC,9.197 and 8.685 and 8.9355
same,content of NAD+,[9]; -PBMC,11.8739 and 12.9843 and 12.9544
same,content of NAD+,[10]; +PBMC,10.9402 and 9.994 and 10.0633
same,content of NAD+,[10]; -PBMC,11.853 and 11.7415 and 11.8655
same,content of pyruvate (PA),[11]; +PBMC,0.2271 and 0.2241 and 0.2316
same,content of pyruvate (PA),[11]; -PBMC,0.1159 and 0.1109 and 0.1297
same,content of pyruvate (PA),[12]; +PBMC,0.1029 and 0.09765 and 0.1064
same,content of pyruvate (PA),[12]; -PBMC,0.08688 and 0.08738 and 0.09664
same,effect on NAMPT protein expression,[13],upregulate the protein expression of NAMPT
COc1nc(OCc2cccc(-c3ccccc3)c2C)ccc1CNCCNC(C)=O [BMS202],IFN-γ (ELISA),[2]; listed as B202,155.867 and 141.57 and 156.336
same,TNF-α (ELISA),[2]; listed as B202,199.656 and 157.29 and 212.022
same,Eno1 mRNA level,"[4]; +T Cells, listed as B202",3.494 and 3.959 and 2.858
same,HK2 mRNA level,"[4]; +T Cells, listed as B202",2.644 and 2.833 and 1.744
same,Pfk1 mRNA level,"[4]; +T Cells, listed as B202",5.686 and 6.904
same,Aldoa mRNA level,"[4]; -T Cells, listed as B202",0.06048 and 0.109 and 0.06804
same,Eno1 mRNA level,"[4]; -T Cells, listed as B202",0.7778 and 1.3449 and 0.7359
same,Glut1 mRNA level,"[4]; -T Cells, listed as B202",0.3392 and 0.2003 and 0.2483
same,HK2 mRNA level,"[4]; -T Cells, listed as B202",1.261 and 1.177 and 0.9693
same,content of pyruvate (PA),"[5]; +T Cells, listed as B202",0.5383 and 0.5346 and 0.5309
same,content of pyruvate (PA),"[5]; -T Cells, listed as B202",0.3322 and 0.3345 and 0.3513
same,content of NAD+,"[6]; taken as +T cells by analogy with Fig 2G, listed as BM202",6.047 and 6.219 and 6.464
same,content of NAD+,"[6]; taken as -T cells by analogy with Fig 2G, listed as BM202",11.761 and 12.9475 and 11.7876
same,Aldoa mRNA level,[7]; listed as B202,1.286 and 1.53 and 1.628
same,Eno1 mRNA level,[7]; listed as B202,1.184 and 1.457 and 1.192
same,Glut1 mRNA level,[7]; listed as B202,1.195 and 1.4406 and 1.289
same,HK2 mRNA level,[7]; listed as B202,4.691 and 5.816 and 5.352
same,Pfk1 mRNA level,[7]; listed as B202,1.211 and 0.6057
same,Aldoa mRNA level,[8]; listed as B202,0.4841 and 0.4127 and 0.7087
same,Eno1 mRNA level,[8]; listed as B202,0.9159 and 1.082 and 0.8085
same,HK2 mRNA level,[8]; listed as B202,0.02498 and 0.01465 and 0.021
same,Pfk1 mRNA level,[8]; listed as B202,0.7631 and 0.9395 and 1
same,content of NAD+,"[9]; +PBMC, listed as BM202",8.982 and 8.901 and 8.955
same,content of NAD+,"[9]; -PBMC, listed as BM202",11.875 and 11.7227 and 11.9827
same,content of NAD+,"[10]; +PBMC, listed as BM202",10.2853 and 11.0822 and 11.211
same,content of NAD+,"[10]; -PBMC, listed as BM202",12.9598 and 12.8438 and 11.842
same,content of pyruvate (PA),"[11]; +PBMC, listed as BM202",0.2451 and 0.2361 and 0.2328
same,content of pyruvate (PA),"[11]; -PBMC, listed as BM202",0.1485 and 0.1357 and 0.1294
same,content of pyruvate (PA),"[12]; +PBMC, listed as BM202",0.1117 and 0.1102 and 0.1239
same,content of pyruvate (PA),"[12]; -PBMC, listed as BM202",0.09589 and 0.0979 and 0.1044
"NC(=O)c1ccc[n+]([C@@H]2O[C@H](COP(=O)([O-])O)[C@@H](O)[C@H]2O)c1 [NMN, nicotinamide mononucleotide]",Relative NAD+,[14]; NMN 1 μM added to LZFPN-90 (NMN 0 μM values equal those of 5 nM LZFPN-90),79.1005 and 77.5282
same,Relative NAD+,[14]; NMN 5 μM added to LZFPN-90,81.63 and 81.9669
same,Relative NAD+,[14]; NMN 10 μM added to LZFPN-90,85.5982 and 82.7424
same,Relative NAD+,[14]; NMN 20 μM added to LZFPN-90,92.0905 and 93.6414
same,Relative NAD+,[14]; NMN 40 μM added to LZFPN-90,91.3204 and 94.481
